PubChem BioAssay (NCI)
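48-hour exposure; five concentrations; linearly interpolated endpoints. GI50: concentration for 50% inhibition of growth. The concentration for full growth arrest is given as TGI.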 *1 amine or outer side, *2 acyl side, *3 side chain or, on linkers, in order; H or OH if unused. Where a SMILES comes first, the peptide text is derived from it. Bridges are numbered along the chain shown (N, C = ends). [ ]: non-standard residue; d: D form. The star is where a group is joined. ξ: configuration not given here. Phe(3,5-F2) = N[C@@H](Cc1cc(F)cc(F)c1)C(=O)O; ξThr(3S) = C[C@H](O[*:3])C(N[*:1])C(=O)[*:2]; X25 = C[C@H]1OCCN([*:1])[C@@H]1C(=O)[*:2]; Pro(4R-Me) = C[C@H]1CN[C@H](C(=O)O)C1; X24 = O=S(=O)(F)Oc1ccc(N*)cc1; CO = O=C([*:1])[*:2]

Key:
Test in all cases: growth of human tumour cells (NCI), 48 h
786-0 renal = system: 786-0 renal
A498 renal = system: A498 renal
A549 NSCLC = system: A549 NSCLC
ACHN renal = system: ACHN renal
BT-549 breast = system: BT-549 breast
CAKI-1 renal = system: CAKI-1 renal
CCRF-CEM leukemia = system: CCRF-CEM leukemia
COLO 205 colon = system: COLO 205 colon
DU-145 prostate = system: DU-145 prostate
EKVX NSCLC = system: EKVX NSCLC
HCC-2998 colon = system: HCC-2998 colon
HCT-116 colon = system: HCT-116 colon
HCT-15 colon = system: HCT-15 colon
HL-60(TB) leukemia = system: HL-60(TB) leukemia
HOP-62 NSCLC = system: HOP-62 NSCLC
HOP-92 NSCLC = system: HOP-92 NSCLC
HS 578T breast = system: HS 578T breast
HT29 colon = system: HT29 colon
IGROV1 ovarian = system: IGROV1 ovarian
K-562 leukemia = system: K-562 leukemia
KM12 colon = system: KM12 colon
LOX IMVI melanoma = system: LOX IMVI melanoma
M14 melanoma = system: M14 melanoma
MALME-3M melanoma = system: MALME-3M melanoma
MCF7 breast = system: MCF7 breast
MDA-MB-231 breast = system: MDA-MB-231 breast
MDA-MB-435 = system: MDA-MB-435
MOLT-4 leukemia = system: MOLT-4 leukemia
NCI-H226 lung = system: NCI-H226 lung
NCI-H460 lung = system: NCI-H460 lung
NCI-H522 lung = system: NCI-H522 lung
NCI/ADR-RES ovarian = system: NCI/ADR-RES ovarian
OVCAR-3 ovarian = system: OVCAR-3 ovarian
OVCAR-4 ovarian = system: OVCAR-4 ovarian
OVCAR-5 ovarian = system: OVCAR-5 ovarian
OVCAR-8 ovarian = system: OVCAR-8 ovarian
PC-3 prostate = system: PC-3 prostate
RPMI-8226 leukemia = system: RPMI-8226 leukemia
RXF 393 renal = system: RXF 393 renal
SF-268 CNS = system: SF-268 CNS
SF-295 CNS = system: SF-295 CNS
SF-539 CNS = system: SF-539 CNS
SK-MEL-2 melanoma = system: SK-MEL-2 melanoma
SK-MEL-28 melanoma = system: SK-MEL-28 melanoma
SK-MEL-5 melanoma = system: SK-MEL-5 melanoma
SK-OV-3 ovarian = system: SK-OV-3 ovarian
SN12C renal = system: SN12C renal
SNB-19 CNS = system: SNB-19 CNS
SNB-75 CNS = system: SNB-75 CNS
SR leukemia = system: SR leukemia
SW-620 colon = system: SW-620 colon
T-47D breast = system: T-47D breast
TK-10 renal = system: TK-10 renal
U251 CNS = system: U251 CNS
UACC-257 melanoma = system: UACC-257 melanoma
UACC-62 melanoma = system: UACC-62 melanoma
UO-31 renal = system: UO-31 renal

`C[C@@H]1C[C@H]2C(=O)O[C@@H](C)C(NC(=O)[C@H](Cc3cc(F)cc(F)c3)NC(=O)Nc3ccc(OS(=O)(=O)F)cc3)C(=O)N3CCC[C@H]3C(=O)N3CCO[C@H](C)[C@H]3C(=O)N[C@@H](CO)C(=O)N2C1` (stereo partly drawn) ({X24-CO}-[Phe(3,5-F2)][ξThr(3S)]P[X25]S[Pro(4R-Me)]; ester 2-C) was tested, and the GI50 (786-0 renal) was 4.54 µM, the TGI (786-0 renal) was > 100 µM and the GI50 (A498 renal) was 3.05 µM. For the same molecule, the TGI (A498 renal) was 69.4 µM, the GI50 (A549 NSCLC) was 4.63 µM and the TGI (A549 NSCLC) was > 100 µM. It also gave a GI50 (ACHN renal) of 10.1 µM, a TGI (ACHN renal) of 35.3 µM and a GI50 (BT-549 breast) of 0.853 µM. The TGI (BT-549 breast) was 24.8 µM, the GI50 (CAKI-1 renal) was 2.79 µM and the TGI (CAKI-1 renal) was 34.8 µM. For the same molecule, the GI50 (CCRF-CEM leukemia) was 0.591 µM, the TGI (CCRF-CEM leukemia) was > 100 µM and the GI50 (COLO 205 colon) was 0.683 µM. For the same molecule, the TGI (COLO 205 colon) was 3.17 µM, the GI50 (DU-145 prostate) was 3.48 µM and the TGI (DU-145 prostate) was > 100 µM. For the same molecule, the GI50 (EKVX NSCLC) was 3.2 µM, the TGI (EKVX NSCLC) was > 100 µM and the GI50 (HCC-2998 colon) was 1.33 µM. It also gave a TGI (HCC-2998 colon) of 18.7 µM, a GI50 (HCT-116 colon) of 0.452 µM and a TGI (HCT-116 colon) of 14.3 µM. The GI50 (HCT-15 colon) was 15.3 µM, the TGI (HCT-15 colon) was > 100 µM and the GI50 (HL-60(TB) leukemia) was 0.335 µM. For the same molecule, the TGI (HL-60(TB) leukemia) was 3.18 µM, the GI50 (HOP-62 NSCLC) was 2.81 µM and the TGI (HOP-62 NSCLC) was > 100 µM. For the same molecule, the GI50 (HOP-92 NSCLC) was 0.927 µM, the TGI (HOP-92 NSCLC) was 7.57 µM and the GI50 (HS 578T breast) was 0.916 µM. For the same molecule, the TGI (HS 578T breast) was > 100 µM, the GI50 (HT29 colon) was 2.69 µM and the TGI (HT29 colon) was 18.6 µM. The GI50 (IGROV1 ovarian) was 2.67 µM, the TGI (IGROV1 ovarian) was > 100 µM and the GI50 (K-562 leukemia) was 0.482 µM. For the same molecule, the TGI (K-562 leukemia) was > 100 µM, the GI50 (KM12 colon) was 4.39 µM and the TGI (KM12 colon) was > 100 µM. The GI50 (LOX IMVI melanoma) was 1.41 µM, the TGI (LOX IMVI melanoma) was > 100 µM and the GI50 (M14 melanoma) was 2.76 µM. The TGI (M14 melanoma) was 22.4 µM, the GI50 (MALME-3M melanoma) was 3.23 µM and the TGI (MALME-3M melanoma) was 45.2 µM. The GI50 (MCF7 breast) was 0.454 µM, the TGI (MCF7 breast) was 64.7 µM and the GI50 (MDA-MB-231 breast) was 0.642 µM. The TGI (MDA-MB-231 breast) was 20.4 µM, the GI50 (MDA-MB-435) was 0.589 µM and the TGI (MDA-MB-435) was 62 µM. For the same molecule, the GI50 (MOLT-4 leukemia) was 2.12 µM, the TGI (MOLT-4 leukemia) was 29.6 µM and the GI50 (NCI-H226 lung) was 2.3 µM. For the same molecule, the TGI (NCI-H226 lung) was 9.41 µM, the GI50 (NCI-H460 lung) was 2.39 µM and the TGI (NCI-H460 lung) was > 100 µM. For the same molecule, the GI50 (NCI-H522 lung) was 0.497 µM, the TGI (NCI-H522 lung) was 9.3 µM and the GI50 (NCI/ADR-RES ovarian) was > 100 µM. For the same molecule, the TGI (NCI/ADR-RES ovarian) was > 100 µM, the GI50 (OVCAR-3 ovarian) was 0.622 µM and the TGI (OVCAR-3 ovarian) was 23.7 µM. For the same molecule, the GI50 (OVCAR-4 ovarian) was 2.38 µM, the TGI (OVCAR-4 ovarian) was > 100 µM and the GI50 (OVCAR-5 ovarian) was 3.58 µM. The TGI (OVCAR-5 ovarian) was 26.8 µM, the GI50 (OVCAR-8 ovarian) was 2.66 µM and the TGI (OVCAR-8 ovarian) was > 100 µM. For the same molecule, the GI50 (PC-3 prostate) was 1.01 µM, the TGI (PC-3 prostate) was > 100 µM and the GI50 (RPMI-8226 leukemia) was 0.346 µM. It also gave a TGI (RPMI-8226 leukemia) of 2.36 µM, a GI50 (RXF 393 renal) of 3.16 µM and a TGI (RXF 393 renal) of 37.2 µM. The GI50 (SF-268 CNS) was 1.33 µM, the TGI (SF-268 CNS) was > 100 µM and the GI50 (SF-295 CNS) was 3.27 µM. For the same molecule, the TGI (SF-295 CNS) was 13.1 µM, the GI50 (SF-539 CNS) was 2.44 µM and the TGI (SF-539 CNS) was > 100 µM. It also gave a GI50 (SK-MEL-2 melanoma) of 0.419 µM, a TGI (SK-MEL-2 melanoma) of 3.59 µM and a GI50 (SK-MEL-28 melanoma) of 2.3 µM. For the same molecule, the TGI (SK-MEL-28 melanoma) was > 100 µM, the GI50 (SK-MEL-5 melanoma) was 3.09 µM and the TGI (SK-MEL-5 melanoma) was 11.6 µM. It also gave a GI50 (SK-OV-3 ovarian) of 2.49 µM, a TGI (SK-OV-3 ovarian) of 8.45 µM and a GI50 (SN12C renal) of 1.36 µM. The TGI (SN12C renal) was > 100 µM, the GI50 (SNB-19 CNS) was 0.598 µM and the TGI (SNB-19 CNS) was > 100 µM. The GI50 (SNB-75 CNS) was 0.53 µM, the TGI (SNB-75 CNS) was 7.46 µM and the GI50 (SR leukemia) was 1.64 µM. For the same molecule, the TGI (SR leukemia) was 29.1 µM, the GI50 (SW-620 colon) was 1.61 µM and the TGI (SW-620 colon) was > 100 µM. The GI50 (T-47D breast) was 0.633 µM, the TGI (T-47D breast) was > 100 µM and the GI50 (TK-10 renal) was 6.22 µM. For the same molecule, the TGI (TK-10 renal) was > 100 µM, the GI50 (U251 CNS) was 0.769 µM and the TGI (U251 CNS) was > 100 µM. For the same molecule, the GI50 (UACC-257 melanoma) was 1.51 µM, the TGI (UACC-257 melanoma) was 8.97 µM and the GI50 (UACC-62 melanoma) was 1.75 µM. For the same molecule, the TGI (UACC-62 melanoma) was 64.7 µM, the GI50 (UO-31 renal) was 23.7 µM and the TGI (UO-31 renal) was > 100 µM.
